Measurements from PubChem BioAssay (NCI).
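How tested: cells in 96-well plates exposed to compound for 48 hours at five concentrations. Here, GI50 denotes the concentration required for 50% inhibition of growth. TGI denotes the concentration required for complete inhibition of growth.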

What was measured:
Assay in all cases: NCI anticancer screen, dose series, 48 h
OVCAR-3 ovarian = test system: OVCAR-3 ovarian
SK-MEL-2 melanoma = test system: SK-MEL-2 melanoma
OVCAR-4 ovarian = test system: OVCAR-4 ovarian
M14 melanoma = test system: M14 melanoma
NCI/ADR-RES ovarian = test system: NCI/ADR-RES ovarian
SK-MEL-28 melanoma = test system: SK-MEL-28 melanoma
T-47D breast = test system: T-47D breast
HT29 colon = test system: HT29 colon
K-562 leukemia = test system: K-562 leukemia
SF-295 CNS = test system: SF-295 CNS
NCI-H522 lung = test system: NCI-H522 lung
TK-10 renal = test system: TK-10 renal
HS 578T breast = test system: HS 578T breast
SK-OV-3 ovarian = test system: SK-OV-3 ovarian
786-0 renal = test system: 786-0 renal
PC-3 prostate = test system: PC-3 prostate
RPMI-8226 leukemia = test system: RPMI-8226 leukemia
SW-620 colon = test system: SW-620 colon
OVCAR-8 ovarian = test system: OVCAR-8 ovarian
SF-268 CNS = test system: SF-268 CNS
COLO 205 colon = test system: COLO 205 colon
UO-31 renal = test system: UO-31 renal
IGROV1 ovarian = test system: IGROV1 ovarian
A498 renal = test system: A498 renal
MDA-MB-435 = test system: MDA-MB-435
HCT-15 colon = test system: HCT-15 colon
MALME-3M melanoma = test system: MALME-3M melanoma
HCC-2998 colon = test system: HCC-2998 colon
MOLT-4 leukemia = test system: MOLT-4 leukemia
SK-MEL-5 melanoma = test system: SK-MEL-5 melanoma
HCT-116 colon = test system: HCT-116 colon
SNB-19 CNS = test system: SNB-19 CNS
BT-549 breast = test system: BT-549 breast
A549 NSCLC = test system: A549 NSCLC
ACHN renal = test system: ACHN renal
HOP-62 NSCLC = test system: HOP-62 NSCLC
UACC-62 melanoma = test system: UACC-62 melanoma
HOP-92 NSCLC = test system: HOP-92 NSCLC
OVCAR-5 ovarian = test system: OVCAR-5 ovarian
DU-145 prostate = test system: DU-145 prostate
RXF 393 renal = test system: RXF 393 renal
MDA-MB-231 breast = test system: MDA-MB-231 breast
UACC-257 melanoma = test system: UACC-257 melanoma
U251 CNS = test system: U251 CNS
MDA-N = test system: MDA-N
NCI-H460 lung = test system: NCI-H460 lung
CAKI-1 renal = test system: CAKI-1 renal
SNB-75 CNS = test system: SNB-75 CNS
EKVX NSCLC = test system: EKVX NSCLC
NCI-H23 lung = test system: NCI-H23 lung
MCF7 breast = test system: MCF7 breast
KM12 colon = test system: KM12 colon
LOX IMVI melanoma = test system: LOX IMVI melanoma
NCI-H226 lung = test system: NCI-H226 lung
SF-539 CNS = test system: SF-539 CNS
SR leukemia = test system: SR leukemia
CCRF-CEM leukemia = test system: CCRF-CEM leukemia
SN12C renal = test system: SN12C renal
HL-60(TB) leukemia = test system: HL-60(TB) leukemia

N#CC(Cc1ccccc1Br)N(CCC1=CCCCC1)C(c1ccccc1)c1ccccc1 (configuration not stated)
TGI (OVCAR-3 ovarian): > 100 µM | TGI (SK-MEL-2 melanoma): > 100 µM | TGI (OVCAR-4 ovarian): > 100 µM | TGI (M14 melanoma): > 100 µM | TGI (NCI/ADR-RES ovarian): > 100 µM | TGI (SK-MEL-28 melanoma): > 100 µM | TGI (T-47D breast): > 100 µM | TGI (HT29 colon): > 100 µM | TGI (K-562 leukemia): > 100 µM | TGI (SF-295 CNS): > 100 µM | TGI (NCI-H522 lung): 87 µM | TGI (TK-10 renal): > 100 µM | TGI (HS 578T breast): > 100 µM | TGI (SK-OV-3 ovarian): > 100 µM | TGI (786-0 renal): > 100 µM | TGI (PC-3 prostate): > 100 µM | TGI (RPMI-8226 leukemia): 83.5 µM | TGI (SW-620 colon): > 100 µM | TGI (OVCAR-8 ovarian): > 100 µM | TGI (SF-268 CNS): > 100 µM | TGI (COLO 205 colon): > 100 µM | TGI (UO-31 renal): > 100 µM | TGI (IGROV1 ovarian): > 100 µM | TGI (A498 renal): > 100 µM | TGI (MDA-MB-435): > 100 µM | TGI (HCT-15 colon): > 100 µM | TGI (MALME-3M melanoma): > 100 µM | TGI (HCC-2998 colon): > 100 µM | TGI (MOLT-4 leukemia): > 100 µM | TGI (SK-MEL-5 melanoma): > 100 µM | TGI (HCT-116 colon): > 100 µM | TGI (SNB-19 CNS): > 100 µM | TGI (BT-549 breast): > 100 µM | TGI (A549 NSCLC): > 100 µM | TGI (ACHN renal): > 100 µM | TGI (HOP-62 NSCLC): > 100 µM | TGI (UACC-62 melanoma): > 100 µM | TGI (HOP-92 NSCLC): > 100 µM | TGI (OVCAR-5 ovarian): > 100 µM | TGI (DU-145 prostate): > 100 µM | TGI (RXF 393 renal): > 100 µM | TGI (MDA-MB-231 breast): > 100 µM | TGI (UACC-257 melanoma): > 100 µM | TGI (U251 CNS): > 100 µM | TGI (MDA-N): > 100 µM | TGI (NCI-H460 lung): > 100 µM | TGI (CAKI-1 renal): > 100 µM | TGI (SNB-75 CNS): > 100 µM | TGI (EKVX NSCLC): > 100 µM | TGI (NCI-H23 lung): > 100 µM | TGI (MCF7 breast): > 100 µM | TGI (KM12 colon): > 100 µM

C=C1C(=O)O[C@H]2[C@H]1CC(=O)/C(C)=C/CC[C@@]1(C)O[C@@H]21
TGI (OVCAR-3 ovarian): 0.6 µM | TGI (SK-MEL-2 melanoma): 8.47 µM | TGI (OVCAR-4 ovarian): 12.9 µM | TGI (M14 melanoma): 1.57 µM | TGI (NCI/ADR-RES ovarian): 10.8 µM | TGI (SK-MEL-28 melanoma): 1.3 µM | TGI (T-47D breast): 2.93 µM | TGI (HT29 colon): 4.53 µM | GI50 (K-562 leukemia): 0.368 µM | TGI (K-562 leukemia): 1.68 µM | TGI (SF-295 CNS): 31.6 µM | TGI (NCI-H522 lung): 0.729 µM | TGI (TK-10 renal): 2.65 µM | TGI (HS 578T breast): 8.62 µM | TGI (SK-OV-3 ovarian): 25.9 µM | TGI (786-0 renal): 1.53 µM | TGI (LOX IMVI melanoma): 1.47 µM | TGI (PC-3 prostate): 6.1 µM | GI50 (RPMI-8226 leukemia): 0.308 µM | TGI (RPMI-8226 leukemia): 1.92 µM | TGI (SW-620 colon): 0.768 µM | TGI (OVCAR-8 ovarian): 7.47 µM | TGI (SF-268 CNS): 13.4 µM | TGI (COLO 205 colon): 0.708 µM | TGI (UO-31 renal): 2.29 µM | TGI (IGROV1 ovarian): 6.27 µM | TGI (A498 renal): 3.6 µM | TGI (MDA-MB-435): 5.43 µM | TGI (HCT-15 colon): 1.56 µM | TGI (MALME-3M melanoma): 3.48 µM | TGI (HCC-2998 colon): 6.02 µM | TGI (NCI-H226 lung): 19.8 µM | GI50 (MOLT-4 leukemia): 0.276 µM | TGI (MOLT-4 leukemia): 1.13 µM | TGI (SK-MEL-5 melanoma): 2.63 µM | TGI (HCT-116 colon): 2.51 µM | TGI (SNB-19 CNS): 13.8 µM | TGI (SF-539 CNS): 4.6 µM | TGI (BT-549 breast): 2 µM | TGI (A549 NSCLC): 27.9 µM | TGI (ACHN renal): 1.44 µM | TGI (HOP-62 NSCLC): 22 µM | TGI (UACC-62 melanoma): 2.76 µM | TGI (SR leukemia): 7.74 µM | TGI (HOP-92 NSCLC): 1.65 µM | TGI (OVCAR-5 ovarian): 6.87 µM | TGI (DU-145 prostate): 18.7 µM | TGI (RXF 393 renal): 1.08 µM | TGI (MDA-MB-231 breast): 3.5 µM | GI50 (UACC-257 melanoma): 2 µM | TGI (UACC-257 melanoma): 5.57 µM | TGI (CCRF-CEM leukemia): 0.394 µM | TGI (U251 CNS): 13.6 µM | TGI (MDA-N): 1.27 µM | TGI (NCI-H460 lung): 29.8 µM | TGI (CAKI-1 renal): 1.28 µM | TGI (SNB-75 CNS): 31.6 µM | GI50 (EKVX NSCLC): 6.06 µM | TGI (EKVX NSCLC): 24.8 µM | TGI (SN12C renal): 3.93 µM | TGI (NCI-H23 lung): 4.03 µM | TGI (MCF7 breast): 1.99 µM | TGI (KM12 colon): 7.09 µM

CC/C(C)=C1\OC(=O)C(C)C(O)C(Cc2cccnc2)NC(=O)C(NC(=O)c2ncccc2O)C(C)OC1=O (configuration not stated)
TGI (OVCAR-3 ovarian): > 100 µM | TGI (SK-MEL-2 melanoma): > 100 µM | TGI (OVCAR-4 ovarian): > 100 µM | TGI (M14 melanoma): > 100 µM | TGI (SK-MEL-28 melanoma): > 100 µM | TGI (T-47D breast): > 100 µM | TGI (HT29 colon): > 100 µM | TGI (K-562 leukemia): > 100 µM | TGI (SF-295 CNS): > 100 µM | TGI (TK-10 renal): > 100 µM | TGI (HS 578T breast): > 100 µM | TGI (SK-OV-3 ovarian): > 100 µM | TGI (786-0 renal): > 100 µM | TGI (LOX IMVI melanoma): > 100 µM | TGI (PC-3 prostate): > 100 µM | TGI (RPMI-8226 leukemia): > 100 µM | TGI (SW-620 colon): > 100 µM | TGI (OVCAR-8 ovarian): > 100 µM | TGI (SF-268 CNS): > 100 µM | TGI (COLO 205 colon): > 100 µM | TGI (IGROV1 ovarian): > 100 µM | TGI (A498 renal): > 100 µM | TGI (MDA-MB-435): > 100 µM | TGI (HCT-15 colon): > 100 µM | TGI (MALME-3M melanoma): > 100 µM | TGI (HCC-2998 colon): > 100 µM | TGI (MOLT-4 leukemia): > 100 µM | TGI (SK-MEL-5 melanoma): > 100 µM | TGI (HCT-116 colon): > 100 µM | TGI (SNB-19 CNS): > 100 µM | TGI (SF-539 CNS): > 100 µM | TGI (BT-549 breast): > 100 µM | TGI (A549 NSCLC): > 100 µM | TGI (ACHN renal): > 100 µM | TGI (HOP-62 NSCLC): > 100 µM | TGI (UACC-62 melanoma): > 100 µM | TGI (SR leukemia): > 100 µM | TGI (OVCAR-5 ovarian): > 100 µM | TGI (DU-145 prostate): > 100 µM | TGI (MDA-MB-231 breast): > 100 µM | TGI (UACC-257 melanoma): > 100 µM | TGI (U251 CNS): > 100 µM | TGI (MDA-N): > 100 µM | TGI (HL-60(TB) leukemia): > 100 µM | TGI (NCI-H460 lung): > 100 µM | TGI (CAKI-1 renal): > 100 µM | TGI (SNB-75 CNS): > 100 µM | TGI (EKVX NSCLC): > 100 µM | TGI (SN12C renal): > 100 µM | TGI (NCI-H23 lung): > 100 µM | TGI (MCF7 breast): > 100 µM | TGI (KM12 colon): > 100 µM
